PubChem BioAssay (NCI)
Values joined by “and” are separate entries in the source; they are usually repeats but may differ in a detail not shown here. Equal entries are not always repeated.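 Following 48 hours of exposure in 96-well plates, responses at five concentrations were used to interpolate endpoints linearly. The concentration for 50% growth inhibition is given as GI50. The concentration for full growth arrest is given as TGI.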

What was measured:
Experiment in all cases: DTP human tumour cell line panel, 48 h
CCRF-CEM leukemia = test system: CCRF-CEM leukemia
SNB-78 CNS = test system: SNB-78 CNS
MOLT-4 leukemia = test system: MOLT-4 leukemia
OVCAR-3 ovarian = test system: OVCAR-3 ovarian
SK-MEL-2 melanoma = test system: SK-MEL-2 melanoma
SNB-19 CNS = test system: SNB-19 CNS
LXFL 529 NSCLC = test system: LXFL 529 NSCLC
UACC-62 melanoma = test system: UACC-62 melanoma
A498 renal = test system: A498 renal
K-562 leukemia = test system: K-562 leukemia

| SMILES | TGI (CCRF-CEM leukemia) | TGI (SNB-78 CNS) [µM] | TGI (MOLT-4 leukemia) | TGI (OVCAR-3 ovarian) | TGI (SK-MEL-2 melanoma) | TGI (SNB-19 CNS) | TGI (LXFL 529 NSCLC) | TGI (UACC-62 melanoma) | TGI (A498 renal) | TGI (K-562 leukemia) | GI50 (OVCAR-3 ovarian) | GI50 (LXFL 529 NSCLC) | GI50 (CCRF-CEM leukemia) | GI50 (SNB-78 CNS) | GI50 (MOLT-4 leukemia) | GI50 (SK-MEL-2 melanoma) | GI50 (SNB-19 CNS) | GI50 (UACC-62 melanoma) | GI50 (A498 renal) [µM] | GI50 (K-562 leukemia) |
| --- | --- | --- | --- | --- | --- | --- | --- | --- | --- | --- | --- | --- | --- | --- | --- | --- | --- | --- | --- | --- |
| CC1=CC[C@@H](C(C)(C)O)C[C@@H]1O | > 5000 µM | > 5000 | > 5000 µM | > 5000 µM | > 5000 µM | > 5000 µM | > 5000 µM | > 5000 µM | > 5000 µM | > 5000 µM | – | – | – | – | – | – | – | – | – | – |
| CC1C(O)=C(O)c2ccccc2N1O (stereo unspecified) | > 100 µM | > 100 | > 100 µM | > 100 µM | > 100 µM | > 100 µM | > 100 µM | > 100 µM | > 100 µM | > 100 µM | – | – | – | – | – | – | – | – | – | – |
| Fc1ccc(N=C2C=CC(=Nc3ccc(F)cc3)c3ccccc32)cc1 | > 100 µM | > 100 | > 100 µM | > 100 µM | > 100 µM | > 100 µM | > 100 µM | > 100 µM | > 100 µM | > 100 µM | – | – | – | – | – | – | – | – | – | – |
| COc1cc(CC(=O)O)c([N+](=O)[O-])cc1OC | > 100 µM | > 100 | > 100 µM | > 100 µM | > 100 µM | > 100 µM | > 100 µM | > 100 µM | > 100 µM | > 100 µM | – | – | – | – | – | – | – | – | – | – |
| COc1ccc([C@@H]2OC(=O)C3C2C(=O)O[C@H]3c2ccc(OC)cc2)cc1 (stereo partly specified) | > 100 µM | > 100 | > 100 µM | > 100 µM | > 100 µM | > 100 µM | > 100 µM | > 100 µM | > 100 µM | > 100 µM | – | – | – | – | – | – | – | – | – | – |
| Cc1cc(Cl)cc2c1NC(=O)C2(O)C(C(=O)c1ccccc1)c1ccccc1 (stereo unspecified) | 81.5 µM | > 100 | 70.9 µM | > 100 µM and 54.1 µM | > 100 µM | > 100 µM | > 100 µM and 72.8 µM | 33.3 µM | 65.7 µM | > 100 µM | 53 µM and 22.4 µM | 56.2 µM and 24 µM | – | – | – | – | – | – | – | – |
| CC1[C@@H]2CC=C3[C@H]4CCC5Cc6nc7c(nc6C[C@@]5(C)C4CC(=O)[C@]32CO[C@]12OC(C)(C)CC2O)CC1CC[C@@H]2C3=C[C@H]4O[C@@]5(O[C@@](C)(CO)C[C@@H]5O)C(C)[C@@]4(O)[C@]3(C)[C@@H](O)CC2[C@]1(C)C7 (stereo partly specified) | 0.0114 µM and 0.00453 µM | – | 0.00156 µM and 0.00157 µM | 0.62 µM and 3.33 µM | 0.0242 µM and 0.0699 µM | 0.537 µM and 0.443 µM | 0.00244 µM | 0.00098 µM and 0.0062 µM | 0.0187 µM and 0.0124 µM | 0.0278 µM and 0.0311 µM | 0.0713 µM and 0.498 µM | 0.000384 µM | 0.000309 µM and 0.000365 µM | 0.000777 µM and 0.00329 µM | 0.000203 µM and 0.000365 µM | 0.0011 µM and 0.00208 µM | 0.00459 µM and 0.00921 µM | 0.000316 µM and 0.000574 µM | 0.000721 | 0.000615 µM and 0.00111 µM |
| COC(=O)C(C(=O)C(=O)Nc1ccccc1C)c1nc2ccc([N+](=O)[O-])cc2[nH]c1=O (stereo unspecified) | > 100 µM | > 100 | > 100 µM | > 100 µM | > 100 µM | > 100 µM | > 100 µM | > 100 µM | > 100 µM | > 100 µM | – | – | – | – | – | – | – | – | – | – |
| CC(=O)Nc1ccc(C2=N/C(=C\c3ccc(Cl)cc3)C(=O)O2)cc1 | 71.7 µM | > 100 | 64.1 µM | 86.7 µM | > 100 µM | > 100 µM | 56.9 µM | > 100 µM | > 100 µM | 51.8 µM | – | – | – | – | – | – | – | – | – | – |
| Cc1ccc(NC(=O)CC2SC(=Nc3ccc(Cl)cc3)NC2=O)cc1C (stereo unspecified) | 11 µM | 44.3 | 5.28 µM | 33.2 µM | 17.9 µM | > 100 µM | 34 µM | 32.6 µM | 43.2 µM | > 58.5 µM | – | – | – | – | – | – | – | – | – | – |
